According to patent publication US7642350B2, “Purine derivatives” (Pfizer Limited, priority 2005, dated 2010):
Like-named read-outs stand apart in the source and are kept apart here.

Experiments:
TLR7 receptor [1] = biological target: T1, TLR7 receptor (Homo sapiens, UniProt Q9NYK1); experiment: cell-based; conditions: for inhibition at 10 µM: read-out: inhibition at 10 μM
T1 sequence (Q9NYK1 27-1049): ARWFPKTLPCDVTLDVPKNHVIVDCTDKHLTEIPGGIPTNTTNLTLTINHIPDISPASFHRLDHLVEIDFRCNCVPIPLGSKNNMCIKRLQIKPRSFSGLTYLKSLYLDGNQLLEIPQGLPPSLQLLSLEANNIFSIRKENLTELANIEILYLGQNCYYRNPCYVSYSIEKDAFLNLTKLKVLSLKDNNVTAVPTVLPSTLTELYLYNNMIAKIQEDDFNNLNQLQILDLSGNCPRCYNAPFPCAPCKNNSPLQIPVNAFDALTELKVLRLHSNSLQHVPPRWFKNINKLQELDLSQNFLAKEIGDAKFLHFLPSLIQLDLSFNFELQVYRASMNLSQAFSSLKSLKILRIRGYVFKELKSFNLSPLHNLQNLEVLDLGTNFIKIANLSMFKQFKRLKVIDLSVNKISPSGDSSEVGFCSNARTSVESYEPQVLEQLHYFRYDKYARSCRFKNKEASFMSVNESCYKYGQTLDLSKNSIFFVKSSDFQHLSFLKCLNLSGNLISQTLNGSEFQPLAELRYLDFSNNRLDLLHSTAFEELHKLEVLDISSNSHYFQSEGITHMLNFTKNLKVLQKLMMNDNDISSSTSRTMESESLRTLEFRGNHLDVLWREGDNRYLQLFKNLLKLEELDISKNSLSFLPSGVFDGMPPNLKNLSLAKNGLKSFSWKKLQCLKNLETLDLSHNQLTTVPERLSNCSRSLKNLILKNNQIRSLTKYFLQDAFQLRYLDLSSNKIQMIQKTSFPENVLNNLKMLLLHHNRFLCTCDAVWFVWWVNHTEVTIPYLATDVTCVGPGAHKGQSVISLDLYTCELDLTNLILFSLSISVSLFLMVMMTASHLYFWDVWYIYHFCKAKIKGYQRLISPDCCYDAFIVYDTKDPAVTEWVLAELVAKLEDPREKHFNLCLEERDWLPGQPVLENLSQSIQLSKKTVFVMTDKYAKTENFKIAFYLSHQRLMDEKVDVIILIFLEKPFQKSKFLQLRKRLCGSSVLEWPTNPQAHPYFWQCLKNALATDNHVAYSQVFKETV
Experimental: (§1) PBL contain as a subpopulation plasmacytoid dendritic cells which are the natural interferon producing cells during an infection and as such are an excellent model in which to profile interferon inducers. As an extremely sensitive antiviral bioassay, supernatant taken from PBL is assayed for antiviral activity in the HCV replicon system.
(§2) The HCV replicon (Huh-5-2[I389luc-ubi-neo-NS3-3′/ET]) is an in vitro model of HCV replication in which the luciferase reporter is incorporated into HCV sequences and stably maintained in the human hepatoma cell line Huh-7. The firefly luciferase reporter is expressed as a luciferase-ubiquitin-neomycin phosphotransferase fusion protein which is cleaved by host proteases to release luciferase. The replicon also contains an internal EMCV IRES, which drives translation of HCV NS3-5B polyprotein, which harbour cell culture adapted mutations to permit high cloning efficiency. […] Firefly luciferase activity is detected using a Bright-Glo™ Luciferase Assay System manufactured by Promega.
(§3) An initial 3 fold serial dilution series of compounds in 100% DMSO is prepared from stocks. The dilution series is then further diluted 100 fold with complete RPMI—FCS. The final concentration of DMSO in the assay is thus 0.1% and that of the test compound is 1/1000 in the 100% DMSO dilution series.
(§4) PBL are prepared seeded at 5×10^5/well/90 μl into the previously prepared compound containing assay plates (96 well clear bottomed TC grade) and incubated for 24 h.
(§5) LucUbiNeo HCV replicon cells are seeded at 10^4/well/90 μl. These are incubated for 24 h. After 24 h 10 μl of medium is transferred from the PBL assay plates to the HCV replicon plates and incubated for a further 48 h.

TLR7 receptor [2] = biological target: T1, TLR7 receptor; conditions: read-out: EC50 (antiviral EC50); concentration of test compound applied to PBL (24 h) giving 50% reduction of HCV replicon levels after transfer of PBL medium to Huh-5-2 luciferase replicon cells (48 h)
Experimental: as §1, §2, §3, §4, §5

Row | Structure (SMILES) | EC50 (TLR7 receptor [1]) | inhibition at 10 µM (TLR7 receptor [1]) | EC50 (TLR7 receptor [2])
1 | Nc1nc(C(=O)N2CCC2)nc2c1[nH]c(=O)n2Cc1ccccc1 [Example 4] | 72 nM | > 50% | 
2 | COCCNC(=O)c1nc(N)c2[nH]c(=O)n(Cc3ccccc3)c2n1 [Example 2] |  | > 50% | 5 nM
3 | COCCn1c(=O)[nH]c2c(N)nc(C(=O)N(C)Cc3ccccc3)nc21 [Example 36] |  | > 50% | 
4 | CCCCS(=O)(=O)NC(=O)c1nc(N)c2[nH]c(=O)n(Cc3ccccc3)c2n1 [Example 226] |  | > 50% | 
5 | COCCn1c(=O)[nH]c2c(N)nc(C(=O)NCc3ccccc3)nc21 [Example 33] |  | > 50% | 
6 | Nc1nc(C(=O)NS(=O)(=O)c2ccccc2)nc2c1[nH]c(=O)n2Cc1ccccc1 [Example 222] |  | > 50% | 
7 | Nc1nc(C(=O)NCc2ccccc2)nc2c1[nH]c(=O)n2Cc1ccccc1 [Example 14] |  | > 50% | 
8 | CNC(=O)c1nc(N)c2[nH]c(=O)n(Cc3ccccc3)c2n1 [Example 5] | 42 nM | > 50% | 
9 | Nc1nc(C(=O)NCC2CC2)nc2c1[nH]c(=O)n2Cc1ccccc1 [Example 1, 6-Amino-9-benzyl-8-oxo-8,9-dihydro-7H-purine-2-carboxylic acid cyclopropylmethyl-amide] | 30 nM | > 50% | 
10 | Cc1ccc(S(=O)(=O)NC(=O)c2nc(N)c3[nH]c(=O)n(Cc4ccccc4)c3n2)cc1 [Example 221, 6-Amino-9-benzyl-N-(toluylsulfonyl)-8-oxo-8,9-dihydro-7H-purine-2-carboxamide] |  | > 50% | 
11 | NC(=O)c1nc(N)c2[nH]c(=O)n(Cc3ccccc3)c2n1 [Example 11] |  | > 50% | 
12 | CCNC(=O)c1nc(N)c2[nH]c(=O)n(Cc3ccccc3)c2n1 [Example 6] | 17 nM | > 50% | 
